The source made the active and inactive calls. The rule behind the calls is not given here.

We go through 1 compound from ChEMBL document CHEMBL6121052, “Design of ROS-Triggered Sesquiterpene Lactone SC Prodrugs as TrxR1 Covalent Inhibitors for the Treatment of Non-Small Cell Lung Cancer” (J Med Chem, 2025).

Data set [1] has as its target T1, Thioredoxin reductase 1, cytoplasmic (Homo sapiens) (UniProt Q16881).
T1 sequence (whole entry): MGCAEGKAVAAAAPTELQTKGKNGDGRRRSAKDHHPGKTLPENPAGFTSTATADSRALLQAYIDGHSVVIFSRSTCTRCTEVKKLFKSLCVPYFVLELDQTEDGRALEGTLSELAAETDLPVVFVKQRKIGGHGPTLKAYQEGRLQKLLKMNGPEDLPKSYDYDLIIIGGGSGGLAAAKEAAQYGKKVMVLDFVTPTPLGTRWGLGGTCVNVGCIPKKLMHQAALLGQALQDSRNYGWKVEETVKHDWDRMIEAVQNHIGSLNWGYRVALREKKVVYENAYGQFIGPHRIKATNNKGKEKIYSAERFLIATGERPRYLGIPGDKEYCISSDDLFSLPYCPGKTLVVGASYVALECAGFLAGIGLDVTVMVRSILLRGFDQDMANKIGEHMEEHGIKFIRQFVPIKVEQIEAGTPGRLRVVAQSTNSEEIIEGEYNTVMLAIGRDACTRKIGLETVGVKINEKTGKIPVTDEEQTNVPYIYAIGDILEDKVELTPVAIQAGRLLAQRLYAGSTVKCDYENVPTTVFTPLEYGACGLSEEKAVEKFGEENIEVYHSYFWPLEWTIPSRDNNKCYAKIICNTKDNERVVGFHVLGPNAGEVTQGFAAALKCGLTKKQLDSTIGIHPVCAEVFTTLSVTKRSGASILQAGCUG
The data set can be described thus: Inhibition of TrxR1 in human NCI-H2291 cells. Format: cell-based. As to conditions: dose <= 10.0 µM.

Data set [2] deals with NCI-H1299. As to the kind of experiment: Induction of apoptosis in human NCI-H1299 cells assessed as early apoptotic cells at 2.5 uM measured after 48 hrs by Annexin V/FITC staining based flow cytometric analysis (reference value: 1.14 %). The format is functional.
The test system of data set [3] is NSCLC. The data set can be described thus: Downregulation of TrxR1 expression in human NSCLC cells by IHC analysis. The format is functional, cell-based.
A short description of data set [4]: AUC (0 to t) in male Sprague-Dawley rat at 10 mg/kg, iv measured upto 24 hrs by LC-MS/MS analysis. Format: ADME, organism-based. Conditions: in vivo.
In data set [5] the test system is A549. As to the kind of experiment: Induction of apoptosis in human A549 cells assessed as early apoptotic cells at 2.5 uM measured after 48 hrs by Annexin V/FITC staining based flow cytometric analysis (reference value: 1.31 %). Format: functional.
Data set [6] deals with NCI-H1299. As to the kind of experiment: Induction of ferroptosis in human NCI-H1299 cells assessed as cell death by MTT assay. The format is functional, cell-based.
For data set [7], the system named is NCI-H1299. The data set can be described thus: Antitumor activity against human NCI-H1299 cells xenografted in po dosed BALB/c mouse assessed as reduction in tumor growth administered every 2 days for 2 weeks. The format is functional, organism-based. Conditions: dose 5-10 mg/kg.
The subject of data set [8] is A549. As to the kind of experiment: Induction of ROS accumulation in human TrxR1 knockdown A549 cells incubated for 24 hrs. Format: functional, cell-based.
Data set [9] relates to NCI-H1299. The data set can be described thus: Induction of apoptosis in human NCI-H1299 cells assessed as late apoptotic cells at 10 uM measured after 48 hrs by Annexin V/FITC staining based flow cytometric analysis (reference value: 1.96%). The format is functional.
Data set [10] has as its target T1, Thioredoxin reductase 1, cytoplasmic (Homo sapiens). As to the kind of experiment: Inhibition of TrxR1 in human A549 cells. Format: cell-based. Conditions: dose <= 10.0 µM.
For data set [11], the system named is NCI-H1299. The data set can be described thus: Induction of apoptosis in human NCI-H1299 cells assessed as viable cells at 2.5 uM measured after 48 hrs by Annexin V/FITC staining based flow cytometric analysis (reference value: 96.3%). The format is functional. Conditions: read-out: Activity.
Data set [12] can be described thus: AUC (0 to infinity) in male Sprague-Dawley rat at 10 mg/kg, iv measured upto 24 hrs by LC-MS/MS analysis. Format: ADME, organism-based. As to conditions: in vivo.

On to `CCCNC(=O)O[C@@H]1/C=C(\C)C[C@H]2C=C(C[C@@H]3OC(=O)[C@H](CSC(=S)N(C)C)[C@H]31)C(=O)O2`, for which the inhibition result in data set [1] and in data set [10] was “Dose-dependent-effect” throughout. Moreover, the Activity in data set [2] was 1.67%; in data set [5], 1.56%; in [7] it was “Dose-dependent-effect”; in data set [9], 21.9%. Further, the result in data set [3], in [6] and in data set [8] was Active. Further, the AUC(0-t) at 24 h in data set [4] was determined as 997 ng·h/mL. In addition, the viability at 2.5 µM in data set [11] came to 89.7%. For the same compound, the AUC(0-inf) in [12] is 1080 ng·h/mL.
